Our source for the IC50 and viability values is US20210077500A1, “PIKFYVE INHIBITORS FOR CANCER THERAPY” (Al Therapeutics, Inc., priority 2019, published 2021).

Some results are limits rather than exact numbers.

One experiment deals with RKO cells. Description: CellTiter-Glo cell viability, single agent and combination (Chou-Talalay CI). The conditions noted are these: Homo sapiens; for IC50: 120 h, read-out: IC50 (single agent), RKO (colorectal, BRAF V600E), 120 h, average of two independent experiments.
For a further experiment, the system named is EBC-1. Put plainly: 5-day viability assay, single agent and combination (Chou-Talalay CI). The conditions noted are these: Homo sapiens, EBC-1, 120 h, read-out: IC50 (single agent), EBC-1; 120 h; average of two independent experiments.
In another experiment the test system is MKN45. Described as above. The conditions noted are these: Homo sapiens, MKN-45, 120 h, read-out: IC50 (single agent), MKN45; 120 h; average of two independent experiments.
Another experiment has as its system HCT-15. Put plainly: CellTiter-Glo cell viability, single agent and combination (Chou-Talalay CI). Type of experiment: cell-based. The conditions noted are these: Homo sapiens, HCT-15, 120 h, HCT-15 (colorectal, KRAS G13D), average of two independent experiments. Background: Cellular ATP, detected with luciferase, serves as a proxy for viable cell number.
The next experiment relates to HT-29. The experiment is described as above. Type of experiment: cell-based. The note with it: Homo sapiens, HT-29, 120 h, HT-29 (colorectal, BRAF V600E), average of two independent experiments.
For the next experiment, the system named is LS411N. Described as above. The note with it: Homo sapiens, LS-411N, 120 h, LS411N (colorectal, BRAF V600E), average of two independent experiments. Type of experiment: cell-based.
The test system of a further experiment is A549. Described as above. The conditions noted are these: Homo sapiens, A549, 120 h, read-out: IC50 (single agent).
Another experiment concerns Caki-1. Description: 5-day viability assay, single agent and combination (Chou-Talalay CI). The note with it: Homo sapiens, CAKI-1, 120 h, read-out: IC50 (single agent).
The test system of a further experiment is GP5d. Description: CellTiter-Glo cell viability, single agent and combination (Chou-Talalay CI). Type of experiment: cell-based. The note with it: Homo sapiens, 120 h, GP5d (colorectal, KRAS G12D), average of two independent experiments.
In a further experiment the test system is NCI-H1792. The experiment is described as above. The note with it: Homo sapiens, NCI-H1792, 120 h, read-out: IC50 (single agent).
For another experiment, the system named is A375. The experiment is described as above. The conditions noted are these: Homo sapiens, A-375, 120 h, read-out: IC50 (single agent).
The mark [1] stands for this setting: read-out: Viability (normalized).

Protocol for A375: (§1) For assessment of synergistic activity, cells of each cell line were seeded at optimal density for growth onto different 96-well plates and placed into a humidified incubator (37° C., 5% CO2) to adhere overnight. […] Cells were treated for 120 hours and then assayed for cell viability using CellTiter-Glo™ (Promega).
(§2) Using this method, a CI value is calculated based on the effects of each drug alone on cell viability (single agent treatment) and the effects of each drug combination, across all combinations of both agents tested. The single agent treatments consisted of 8 different concentrations of each single agent, obtained by serial dilution. The concentrations were chosen to provide a range above and below the IC50 value of the single agent (if achieved) in a given cell line.
Protocol for A549: as §1, §2
Protocol for Caki-1: (§3) For assessment of synergistic activity, cells of each cell line were seeded at optimal density for growth onto different 96-well plates and placed into a humidified incubator (37° C., 5% CO2) to adhere overnight. The following day, the cells on each plate were treated either with a single agent (a PIKfyve inhibitor, e.g., apilimod, or a RAS pathway inhibitor) or with a combination of the two agents. Cells were treated for 120 hours and then assayed for cell viability using CellTiter-Glo™ (Promega).
as §2
(§4) D1 alone and D2 alone were estimated from Hill's equation:
(§5) Here, we utilized cells harboring MET pathway activation, particularly the EBC-1, MKN45 and Caki-1 cell lines. In addition to MET inhibitors, since MET activates the RAS pathway, we also assayed for synergistic activity with inhibitors of the RAS pathway in these cells.
Protocol for EBC-1: as §3, §2, §4, §5
Protocol for GP5d: as §3, §2, §4
Protocol for HCT-15: as §3, §2, §4
Protocol for HT-29: as §3, §2, §4
Protocol for LS411N: as §3, §2, §4
Protocol for MKN45: as §3, §2, §4, §5
Protocol for NCI-H1792: as §1, §2
Protocol for RKO cells: as §3, §2
In each experiment for a given cell line, the combination treatments consisted of 8×8 or 64 different combination treatments.
Using this method, combinations with CI values>1 are considered antagonistic, CI values=1 are considered additive, and CI values<1 are considered synergistic.

As to `CC(C)Nc1cc(-c2c[nH]c(C(=O)N[C@H](CO)c3cccc(Cl)c3)c2)c(Cl)cn1` [BVD-523], the 50% inhibitory concentration (IC50) (as a rule, the concentration at which inhibition is half-maximal) came to 945 nM with RKO cells, 866 nM in the experiment with EBC-1 and 433 nM in the experiment on MKN45.
Regarding `C[C@@H](Oc1cc(-c2cnn(C3CCNCC3)c2)cnc1N)c1c(Cl)ccc(F)c1Cl` [Crizotinib, crizotinib], the half-inhibitory concentration (IC50) in the experiment with EBC-1 came out at 10 nM; in the experiment on MKN45, 13 nM.
Turning to `Cn1nccc1Nc1nccc(-c2ccn([C@H](CO)c3ccc(Cl)c(F)c3)c(=O)c2)n1` [GDC-0994], the IC50 was found to be 4150 nM in the experiment with EBC-1 and 5330 nM in the experiment with MKN45.
As for `CN1CCC(COc2cnc(-c3cccc(Cn4nc(-c5cccc(C#N)c5)ccc4=O)c3)nc2)CC1` [Tepotinib, tepotinib], the IC50 in the experiment on EBC-1 was found to be 13 nM; in the experiment on MKN45 it was 16 nM.
Turning to `CCCS(=O)(=O)Nc1ccc(F)c(C(=O)c2c[nH]c3ncc(-c4ccc(Cl)cc4)cc23)c1F` [Vemurafenib, vemurafenib], the half-inhibitory concentration (IC50) in the experiment on HCT-15 was above 10000 nM; in the experiment on HT-29, 2470 nM; in the experiment with RKO cells, 7120 nM; in the experiment with LS411N, 350 nM.
As for `Cc1cccc(/C=N/Nc2cc(N3CCOCC3)n3nc(-c4ccncc4)cc3n2)c1` [APY-0201], the values for the IC50 in the experiment on EBC-1 and in the experiment with MKN45 were 171 nM and 269 nM, respectively.
Consider `CNC(=O)c1cc(Oc2ccc(NC(=O)Nc3ccc(Cl)c(C(F)(F)F)c3)c(F)c2)ccn1` [Regorafenib, regorafenib], for which the half-inhibitory concentration (IC50) in the experiment on HCT-15 amounted to 7050 nM; in the experiment with HT-29 it was 6510 nM; in the experiment with A549, 6380 nM; in the experiment on RKO cells, 4920 nM; in the experiment with Caki-1, 5960 nM.
For the compound `Cn1cnc2c(F)c(Nc3ccc(Br)cc3Cl)c(C(=O)NOCCO)cc21` [Selumetinib, selumetinib], in the experiment on RKO cells, the IC50 was 3510 nM. Moreover, in the experiment with RKO cells (setting [1]), the viability (in general, the share of living cells, or the viability signal relative to a control) at 0.078 µM was 78%; the viability at 0.125 µM was 78%; the viability at 0.313 µM was determined as 71%; the viability at 0.625 µM amounted to 74%. In the experiment with RKO cells (setting [1]), the viability at 1.25 µM worked out at 64%, the viability at 2.5 µM worked out at 53%, the viability at 5 µM stood at 46% and the viability at 100 µM came to 32%. Further, the IC50 in the experiment with EBC-1 turned out to be 160 nM. Besides, the IC50 with LS411N was found to be 46 nM. In addition, the IC50 in the experiment with MKN45 is 1110 nM.
Turning to `Cn1cnc2c(F)c(Nc3ccc(Br)cc3F)c(C(=O)NOCCO)cc21` [Binimetinib, binimetinib], the IC50 in the experiment with EBC-1 was 75 nM; with MKN45, 533 nM; in the experiment with GP5d, above 5000 nM.
Regarding `COc1cc2nccc(Oc3ccc(NC(=O)C4(C(=O)Nc5ccc(F)cc5)CC4)cc3)c2cc1OC` [Cabozantinib, cabozantinib], the IC50 with EBC-1 was 28 nM; in the experiment with MKN45 it was 67 nM.
Take `COCCOc1cnc2ccn([C@H](C)c3nnc4c(F)cc(-c5cnn(C)c5)cn34)c(=O)c2c1` [AMG 337]: the results for the IC50 in the experiment on EBC-1 and in the experiment with MKN45 were 4 nM and 7 nM, respectively.
As to `CNC(=O)c1ccc(-c2cnc3ncc(Cc4ccc5ncccc5c4)n3n2)cc1F` [Capmatinib, capmatinib], the results for the IC50 with EBC-1 and in the experiment on MKN45 were 0.7 nM and 1.5 nM, respectively.
The matching figures for `C[C@@H](c1ccc2nccn2c1)n1nnc2ncc(-c3cnn(C)c3)nc21` [Savolitinib, savolitinib]: 1.5 nM and 3 nM.
Consider `CC(=O)Nc1cccc(-n2c(=O)n(C3CC3)c(=O)c3c(Nc4ccc(I)cc4F)n(C)c(=O)c(C)c32)c1` [Trametinib, trametinib], for which the half-inhibitory concentration (IC50) with HT-29 came out at 3 nM; in the experiment on A549 it was 17 nM; with RKO cells, 32 nM; in the experiment on EBC-1, 10 nM; in the experiment with Caki-1 it was 47 nM; with NCI-H1792 it was 33 nM. Also, the IC50 was 1 nM in the experiment on LS411N, 18 nM in the experiment on MKN45, above 5000 nM in the experiment on GP5d and 2 nM in the experiment with A375.
Consider `O=C(c1ccc(F)c(F)c1Nc1ccc(I)cc1F)N1CC(O)([C@@H]2CCCCN2)C1` [Cobimetinib, cobimetinib], for which the IC50 in the experiment on A549 is 403 nM; in the experiment on EBC-1, 136 nM; with Caki-1 it was above 5000 nM; in the experiment on MKN45, 194 nM; with GP5d, above 5000 nM.
